Source: patent EP0094564A2, “Azolyl-methyl oxiranes, their preparation and use as medicaments and plant protecting agents” (BASF Aktiengesellschaft, priority 1982, dated 1983)
≈ marks a conversion by molar mass, not a printed value.

Experiments:
Cand.alb. M = assay: Candida albicans pseudomycelium/mycelium phase test, MIC (column M); type: cell-based; conditions: in vitro, read-out: Minimale Hemmkonzentration (MHK) Cand.alb. M
From the text: (§1) Die Wirkung gegen Dermatophyten, Bakterien und Protozonen kann nach Methoden, wie sie beispielsweise in P. Klein, Bakteriologische Grundlagen der chemotherapeutischen Laboratoriumspraxis, Springer-Verlag Berlin, 1957, beschrieben wird, aufgezeigt werden. Die überraschende Wirkung gegenüber Hefen wurde im Pseudomyzel- und Myzelphasentest mit Candida albicans nachgewiesen (vgl. DE-OS 30 10 093). Es wurde geprüft, welche minimalen Hemmkonzentrationen (MHK-Werte) im Agardilutionstest erreicht werden. In der Tabelle 1 sind die Ergebnisse zusammengefaßt.

Trichom. vag. = assay: Minimal inhibitory concentration in vitro (protozoa); type: cell-based; conditions: read-out: Minimale Hemmkonzentration (MHK) Trichom. vag.
From the text: as §1

Entamoeb hist. = assay: as above; type: cell-based; conditions: read-out: Minimale Hemmkonzentration (MHK) Entamoeb hist.
From the text: as §1

Botrytis cinerea = assay: Versuch 4: activity against Botrytis cinerea on paprika seedlings; type: in vivo; conditions: 0,05 %ige Spritzbrühe; sprayed before inoculation; assessed after 5 days; value given as 'beispielsweise'
From the text: Paprikasämlinge der Sorte "Neusiedler Ideal Elite" wurden, nachdem sich 4 bis 5 Blätter gut entwickelt hatten, mit wäßrigen Suspensionen, die 80 % Wirkstoff und 20 % Emulgiermittel in der Trockensubstanz enthielten, tropfnaß gespritzt. Nach dem Antrocknen des Spritzbelages wurden die Pflanzen mit einer Konidienaufschwemmung des Pilzes Botrytis cenerea besprüht und bei 22 bis 24 C in eine Kammer mit hoher Luftfeuchtigkeit gestellt. Nach 5 Tagen hatte sich die Krankheit auf den unbehandelten Kontrollpflanzen so stark entwickelt, daß die entstandenen Blattnekrosen den überwiegenden Teil der Blätter bedeckten.

Cand.alb. H = assay: Candida albicans pseudomycelium/mycelium phase test, MIC; type: cell-based; conditions: in vitro, column H, read-out: Minimale Hemmkonzentration (MHK) Cand.alb. H
From the text: as §1

Staph. aur. SG 511 = assay: Agar dilution test, minimal inhibitory concentration in vitro; type: cell-based; conditions: read-out: Minimale Hemmkonzentration (MHK) Staph. aur. SG 511
From the text: as §1

Epid. flocc. 157 = assay: as above; type: cell-based; conditions: read-out: Minimale Hemmkonzentration (MHK) Epid. flocc. 157
From the text: as §1

Aps.fum. 2 = assay: as above; type: cell-based; conditions: read-out: Minimale Hemmkonzentration (MHK) Aps.fum. 2
From the text: as §1

Strept. faec. 8043 = assay: as above; type: cell-based; conditions: read-out: Minimale Hemmkonzentration (MHK) Strept. faec. 8043
From the text: as §1

Trichoph. ment. 21 = assay: as above; type: cell-based; conditions: read-out: Minimale Hemmkonzentration (MHK) Trichoph. ment. 21
From the text: as §1

E.coli muta-flor = assay: as above; type: cell-based; conditions: Escherichia coli, read-out: Minimale Hemmkonzentration (MHK) E.coli muta-flor
From the text: as §1

Microsp. ferrug. 5 = assay: as above; type: cell-based; conditions: read-out: Minimale Hemmkonzentration (MHK) Microsp. ferrug. 5
From the text: as §1

Mucor pus. 6 = assay: as above; type: cell-based; conditions: read-out: Minimale Hemmkonzentration (MHK) Mucor pus. 6
From the text: as §1

Abs. corym. 1 = assay: as above; type: cell-based; conditions: read-out: Minimale Hemmkonzentration (MHK) Abs. corym. 1
From the text: as §1

[1] = tested on: Weizenbraunrost (Puccinia recondita); assay: Versuch 2: activity against wheat brown rust on wheat seedlings; type: in vivo; conditions: 0,025; 0,006; 0,0015 %ige Spritzbrühen; sprayed 24 h after inoculation; assessed after 8 days; value given as 'beispielsweise'
Description: Blätter von in Töpfen gewachsenen Weizensämlingen der Sorte "Jubilar" wurden mit Sporen des Braunrostes (Puccinia recondita) bestäubt. Danach wurden die Töpfe für 24 Stunden bei 20 bis 22°C in eine Kammer mit hoher Luftfeuchtigkeit (90 bis 95 %) gestellt. Während dieser Zeit keimten die Sporen aus und die Keimschläuche drangen in das Blattgewebe ein. Die infizierten Pflanzen wurden anschließend mit wäßrigen Spritzbrühen, die 80 % Wirkstoff und 20 % Emulgiermittel in der Trockensubstanz enthielten, tropfnaß gespritzt. Nach dem Antrocknen des Spritzbelages wurden die Versuchspflanzen im Gewächshaus bei Temperaturen zwischen 20 und 22°C und 65 bis 70 % relativer Luftfeuchte aufgestellt. Nach 8 Tagen wurde das Ausmaß der Rostpilzentwicklung auf den Blättern ermittelt.

[2] = tested on: Gurkenmehltau (Erysiphe cichoracearum); assay: Versuch 3: activity against cucumber powdery mildew on cucumber seedlings; type: in vivo; conditions: 0,025 %ige Spritzbrühe; sprayed about 20 h after inoculation; assessed after 21 days; value given as 'beispielsweise'
From the text: Blätter von in Töpfen gewachsenen Gurkenkeimlingen der Sorte "Chinesische Schlange" wurden im Zweiblattstadium mit einer Sporensuspension des Gurkenmehltaus (Erysiphe cichoracearum) besprüht. Nach etwa 20 Stunden wurden die Versuchspflanzen mit wäßriger Spritzbrühe, die 80 % Wirkstoff und 20 % Emulgiermittel in der Trockensubstanz enthielt, bis zur Tropfnässe besprüht. Nach dem Antrocknen des J Spritzbelages wurden sie anschließend im Gewächshaus bei Temperaturen zwischen 20 und 22^00 und 70 bis 80 % relativer Luftfeuchtigkeit aufgestellt. Zur Beurteilung der Wirksamkeit der neuen Stoffe wurde das Ausmaß der Pilzentwicklung nach 21 Tagen beurteilt.

[3] = tested on: Weizenmehltau (Erysiphe graminis var. tritici); assay: Versuch 1: activity against wheat powdery mildew on wheat seedlings; type: in vivo; conditions: 0,025; 0,006; 0,0015 %ige Spritzbrühen; sprayed 24 h before inoculation; assessed after 7 days; value given as 'beispielsweise'
Description: Blätter von in Töpfen gewachsenen Weizenkeimlingen der Sorte "Jubilar" wurden mit wäßriger Spritzbrühe, die 80 % (Gew.%) Wirkstoff und 20 % Emulgiermittel in der Trockensubstanz enthielt, besprüht und 24 Stunden nach dem Antrocknen des Spritzbelages mit Oidien (Sporen) des Weizenmehltaus (Erysiphe graminis var. tritici) bestäubt. Die Versuchspflanzen wurden anschließend im Gewächshaus bei Temperaturen zwischen 20 und 22 °C und 75 bis 80 % relativer Luftfeuchtigkeit aufgestellt. Nach 7 Tagen wurde das Ausmaß der Mehltauentwicklung ermittelt.

Pullularia pullulans = assay: Versuch 5: filter paper disc inhibition zone test on malt extract agar; type: cell-based; conditions: 72 h, discs soaked with 0,2 ml of 200 ppm solution, 3 days at 22 to 24 °C, read-out: Wirksamkeit gegen Pullularia pullulans
Description: Filtrierpäpierscheiben mit einem Durchmesser von 13 mm und einer Stärke von 1 mm werden mit 0,2 ml Lösungen getränkt, die jeweils 200 Teile Wirkstoff je Million Teile Lösung (ppm) enthalten. Die Scheiben werden dann auf einem 2 %igen Malzextraktagar in Petrischalen gelegt, die zuvor getrennt mit Sporen des holzverfärbenden Pilzes Pullularia pullulans beimpft wurden. Anschließend werden die Schalen 3 Tage lang bei 22 bis 24 °C bebrütet. Nach dieser Zeit hat sich der Pilz in den Kontrollschalen sehr gut entwickelt.
Die fungizide Wirksamkeit der Wirkstoffe wird anhand der um die Filtrierpapierscheiben herum entstandenen pilzfreien Zonen (Hemmhöfe) wie folgt beurteilt: […]

Trametes versicolor = assay: Versuch 6: fungal growth on malt extract agar containing active ingredient; type: cell-based; design: key: 0 = kein Pilzwachstum (Pilzmyzel abgetötet); 1 = geringes Pilzwachstum (bis 1/3 der Agaroberfläche bewachsen); 3 = mittleres Pilzwachstum (bis 2/3 der Agaroberfläche bewachsen); 5 = ungehemmtes Pilzwachstum (gesamte Agaroberfläche bewachsen); conditions: 40 ppm in 5 % malt extract agar; 5 days at 25 °C; growth score
From the text: (§2) Die Wirkstoffe werden in Aceton gelöst, in Mengen von 40 ppm einem verflüssigten 5 %igen Malzextraktagar zugesetzt. Der Agar wird in Petrischalen ausgegossen und nach dem Erstarren werden die fungizidhaltigen Nähragarplatten zentral mit Myzel der holzzerstörenden Pilze Coniophora puteana und Trametes versicolor, des Moderfäule und Stockflecken verursachenden Pilzes Chaetomium globosum sowie mit Sporen des grünen Holzschimmels Trichoderma viride beimpft.
(§3) Nach fünftägiger Bebrütung der Schalen bei 25 °C wird die Entwicklung der Pilzkolonien auf dem Nährboden im Vergleich mit der Kontrolle (ohne Wirkstoff-Zusatz) beurteilt: • 0 = kein Pilzwachstum (Pilzmyzel abgetötet) • 1 = geringes Pilzwachstum (bis 1/3 der Agaroberfläche bewachsen) • 3 = mittleres Pilzwachstum (bis 2/3 der Agaroberfläche bewachsen) • 5 = ungehemmtes Pilzwachstum (gesamte Agaroberfläche bewachsen)

Chaetomium globosum = assay: as above; type: cell-based; design: key: 0 = kein Pilzwachstum (Pilzmyzel abgetötet); 1 = geringes Pilzwachstum (bis 1/3 der Agaroberfläche bewachsen); 3 = mittleres Pilzwachstum (bis 2/3 der Agaroberfläche bewachsen); 5 = ungehemmtes Pilzwachstum (gesamte Agaroberfläche bewachsen); conditions: 40 ppm in 5 % malt extract agar; 5 days at 25 °C; growth score
From the text: as §2, §3

Coniophora puteana = assay: as above; type: cell-based; design: key: 0 = kein Pilzwachstum (Pilzmyzel abgetötet); 1 = geringes Pilzwachstum (bis 1/3 der Agaroberfläche bewachsen); 3 = mittleres Pilzwachstum (bis 2/3 der Agaroberfläche bewachsen); 5 = ungehemmtes Pilzwachstum (gesamte Agaroberfläche bewachsen); conditions: 40 ppm in 5 % malt extract agar; 5 days at 25 °C; growth score
From the text: as §2, §3

Trichoderma viride = assay: as above; type: cell-based; design: key: 0 = kein Pilzwachstum (Pilzmyzel abgetötet); 1 = geringes Pilzwachstum (bis 1/3 der Agaroberfläche bewachsen); 3 = mittleres Pilzwachstum (bis 2/3 der Agaroberfläche bewachsen); 5 = ungehemmtes Pilzwachstum (gesamte Agaroberfläche bewachsen); conditions: 40 ppm in 5 % malt extract agar; 5 days at 25 °C; growth score
From the text: as §2, §3

COc1cccc(C2OC2(Cn2cncn2)c2ccc(Cl)cc2)c1 (single isomer, unassigned) [Beispiel 30]
MIC (Cand.alb. M): 2 µg/mL (≈ 5.85 µM)
MIC (Trichom. vag.): > 16 µg/mL
MIC (Entamoeb hist.): > 1 µg/mL
fungizide Wirkung gegen Botrytis cinerea an Paprika (Botrytis cinerea): 97%
MIC (Cand.alb. H): 64 µg/mL (≈ 187 µM)
MIC (Staph. aur. SG 511): > 128 µg/mL
MIC (Epid. flocc. 157): 8 µg/mL (≈ 23.4 µM)
MIC (Aps.fum. 2): > 128 µg/mL
MIC (Strept. faec. 8043): > 128 µg/mL
MIC (Trichoph. ment. 21): 8 µg/mL (≈ 23.4 µM)
MIC (E.coli muta-flor): > 128 µg/mL
MIC (Microsp. ferrug. 5): 2 µg/mL (≈ 5.85 µM)
MIC (Mucor pus. 6): 8 µg/mL (≈ 23.4 µM)
MIC (Abs. corym. 1): 16 µg/mL (≈ 46.8 µM)
fungizide Wirkung gegen Weizenbraunrost [1]: 100%

Clc1ccc(C2(Cn3ccnc3)OC2c2ccc(Cl)cc2Cl)cc1 (single isomer, unassigned) [Beispiel 1, 2-(1H-Imidazol-1-yl-methyl)-2-(4-chlorphenyl)-3-(2,4-dichlorphenyl)-oxiran]
MIC (Cand.alb. M): < 0.0039 µg/mL
fungizide Wirkung gegen Gurkenmehltau [2]: 100%
MIC (Trichom. vag.): > 16 µg/mL
fungizide Wirkung gegen Botrytis cinerea an Paprika (Botrytis cinerea): 97%
MIC (Cand.alb. H): 16 µg/mL (≈ 42.1 µM)
fungizide Wirkung gegen Weizenmehltau [3]: 100%
MIC (Staph. aur. SG 511): 16 µg/mL (≈ 42.1 µM)
MIC (Epid. flocc. 157): 0.5 µg/mL (≈ 1.32 µM)
MIC (Aps.fum. 2): 1 µg/mL (≈ 2.63 µM)
MIC (Strept. faec. 8043): 128 µg/mL (≈ 337 µM)
MIC (Trichoph. ment. 21): 0.5 µg/mL (≈ 1.32 µM)
MIC (E.coli muta-flor): > 128 µg/mL
MIC (Mucor pus. 6): 1 µg/mL (≈ 2.63 µM)
MIC (Abs. corym. 1): 0.5 µg/mL (≈ 1.32 µM)

Clc1ccc(C2OC2(Cn2cncn2)c2ccc(-c3ccccc3)cc2)cc1 (single isomer, unassigned) [Beispiel 42]
zone of inhibition at 200 ppm (Pullularia pullulans): > 6 mm
fungizide Wirkung gegen Gurkenmehltau [2]: 100%
Wirksamkeit gegen Trametes versicolor (Trametes versicolor): 0
Wirksamkeit gegen Chaetomium globosum (Chaetomium globosum): 0
Wirksamkeit gegen Coniophora puteana (Coniophora puteana): 0
Wirksamkeit gegen Trichoderma viride (Trichoderma viride): 0
fungizide Wirkung gegen Botrytis cinerea an Paprika (Botrytis cinerea): 97%
fungizide Wirkung gegen Weizenmehltau [3]: 100%
fungizide Wirkung gegen Weizenbraunrost [1]: 100%

Clc1ccc(C2(Cn3cncn3)OC2c2ccc(Cl)cc2Cl)cc1 (single isomer, unassigned) [Beispiel 3, 2-(1,2,4-Triazol-1-yl--methyl)-2-(4-chlorphenyl)-3-(2,4-dichlorphenyl)-oxiran]
MIC (Trichom. vag.): > 16 µg/mL
MIC (Entamoeb hist.): > 1 µg/mL
fungizide Wirkung gegen Botrytis cinerea an Paprika (Botrytis cinerea): 97%
MIC (Cand.alb. H): > 128 µg/mL
MIC (Staph. aur. SG 511): 32 µg/mL (≈ 84.1 µM)
MIC (Epid. flocc. 157): 4 µg/mL (≈ 10.5 µM)
MIC (Aps.fum. 2): > 128 µg/mL
MIC (Strept. faec. 8043): > 128 µg/mL
MIC (Trichoph. ment. 21): 8 µg/mL (≈ 21 µM)
MIC (E.coli muta-flor): > 128 µg/mL
MIC (Microsp. ferrug. 5): 2 µg/mL (≈ 5.25 µM)
MIC (Mucor pus. 6): 1 µg/mL (≈ 2.63 µM)
MIC (Abs. corym. 1): 2 µg/mL (≈ 5.25 µM)
fungizide Wirkung gegen Weizenbraunrost [1]: 100%

CC(C)(C)c1ccc(C2OC2(Cn2ccnc2)c2ccc(Cl)cc2Cl)cc1 (single isomer, unassigned) [Beispiel 21]
MIC (Cand.alb. M): 1 µg/mL (≈ 2.49 µM)
MIC (Trichom. vag.): > 16 µg/mL
MIC (Entamoeb hist.): > 1 µg/mL
MIC (Cand.alb. H): 2 µg/mL (≈ 4.98 µM)
MIC (Staph. aur. SG 511): 8 µg/mL (≈ 19.9 µM)
MIC (Epid. flocc. 157): 16 µg/mL (≈ 39.9 µM)
MIC (Aps.fum. 2): > 128 µg/mL
MIC (Strept. faec. 8043): 2 µg/mL (≈ 4.98 µM)
MIC (Trichoph. ment. 21): 16 µg/mL (≈ 39.9 µM)
MIC (E.coli muta-flor): > 128 µg/mL
MIC (Microsp. ferrug. 5): 8 µg/mL (≈ 19.9 µM)
MIC (Mucor pus. 6): 8 µg/mL (≈ 19.9 µM)
MIC (Abs. corym. 1): 16 µg/mL (≈ 39.9 µM)
